Data as given in patent US9963457B2, “Crystal of 5-((2-(6-amino)-9H-purin-9-yl)ethyl)amino)pentan-1-o1” (FOREVER CHEER INTERNATIONAL LIMITED, priority 2016, dated 2018).

Columns and labels:
[1] = tested on: mice treated with yeast polysaccharide; test: Bright/dark box test, visceral pain; format: in vivo; details: 3 mg/kg IP
Experimental: The visceral pain is induced by injecting yeast polysaccharide into the mice colony, and the yeast polysaccharide is derived from Saccharomyces cerevisiae (Sigma), wherein one kind of dextran is resident on the cell wall of the yeast and is identified as a protein-carbohydrate complex. Specifically, the mice were anesthetized after inhaling 1-3% isoflurane, and then a […] suspension of yeast polysaccharide (formulated as a 30 mg/ml solution in physiological saline) was injected into the colon of the mice by using a 24 mm long plastic feed needle within 2 minutes. The control group was injected with 0.1 ml physiological saline. The yeast polysaccharide or physiological saline was injected daily for 3 days. A visceral pain behavior test was carried out according to the Laird procedure. The number of times the mice licking the abdomen within 10 minutes was recorded, excluding other grooming behaviors, stretching of whole body, pressing the abdomen against the floor, and an 1-2-second arched posture. On day 1, 7 and 14 after the injection into the colon, an open field test was carried out from 9 am to 12 pm, and the entire test was a double-blind test. Prior to the behavioral test, the mice were acclimated for 30 minutes in an observation room. The mice were placed at the middle of a new open zone (43.2×43.2×30.5 cm^3) with micro light (<50 lux) and a fan. The movement distance, vertical count, movement count, stereotypic behavior count, and jumping count of animals were recorded within 30 minutes by means of an activity monitoring system equipped with multiple pairs of packaged light beam sets.
Bright/dark box test: The test procedure was carried out by using an improved method in accordance with the prior art. The device was composed of a rectangular organic glass box (44×8.5×25 cm^3), which is separated into bright and dark compartments with the equal size by using a door. A 60 watt lamp (400 lux) in turn-on state was placed at 30 cm above the box to irradiate the bright compartment. Each animal was first placed in the dark compartment for 20 seconds, and then the door leading to the bright compartment was open. The time each animal stayed in the dark compartment and the time each animal enters the bright compartment within 10 minutes were recorded.
In order to confirm the effect of the crystal of the present invention on inhibiting anxiety, mice were subjected to a bright/dark box test, and the results were as shown in Table 8. The physiological saline, non-crystalline NB001 (3 mg/kg), the crystal of the present invention (3 mg/kg), and Gabapentin (30 mg/kg) as a positive control were intraperitoneally injected (IP) into the mice treated with yeast polysaccharide respectively. The behaviors of Mice were observed 28 days after the yeast polysaccharide treatment.

[2] = tested on: bone cancer pain model in rat (Walker 256 cells); test: Paw withdrawal thermal latency (PWL) in bone cancer pain model; format: in vivo, SD rats; details: 20 mg/kg, i.g.
Experimental: 1. Animals 50 SD rats (180-220 g), placed under a quiet and warm (22° C.) environment without strong light irradiation, having free access to feed and water.
2. Cell Culture: SD Rat homologous cancer cell strains Walker 256 preserved by the Laboratory Animal Center, Forth Military Medical
University, or a commercially available product can be used. RPMI 1640 culture medium (Gibco Inc. of US, containing 100 U/ml each of 10% fetal bovine serum, penicillin, and streptomycin) was used, and the tumor cells were incubated as suspension cells in a 37° C. incubator under 5% CO2, with the medium replaced every other day, and 2 days for 1 passage. The cells were harvested at the 3rd passage, with a cell concentration of 2×10^5/10 μl.
3. Establishment of bone cancer pain model in rat: the rats were operated at the left knee with a small incision after anesthesia (40 mg/kg of pentobarbital sodium) according to sterile surgical operation procedures, the muscle was stripped off gently and the patellar ligament is cut open to expose the distal femur, with 1 mm syringe needle inserted from the intercondylar fossa vertically into the marrow cavity, with an inserting distance no more than 5 mm to prevent punching. Then a 20 μl micro-injector was inserted into the marrow cavity to slowly inject 10 μl of a suspension containing the Walker 256 cells (2×10^5 cancer cells per 10 μl). The injector was stayed there for a few minutes after the injection, and then the needle pinhole was immediately sealed with sterile bone wax. The tumor cells leaking out of the marrow cavity were killed with 75% ethyl alcohol, and then the rat was sutured under sterile conditions layer by layer. The same operation was performed in the sham operation group, except that only the same volume of sterile saline was injected into the marrow cavity slowly.
6. Drug intervention: On day 18 after the surgical operation, the SD rats of the operation group were randomized into 6 groups, i.e., respectively the model group; non-crystalline NB001 group (20 mg/kg, i.g.); the group of the crystal of the present invention (20 mg/kg, i.g.); morphine (2 mg/kg, i.p.); and gabapentin (100 mg/kg, i.g.). The new crystal form and non-crystalline form of the AC1 inhibitor NB001 were both formulated with sterile saline, and morphine and gabapentin were used as positive control drugs. All drugs were administered twice daily for 3 days, and the pain threshold was measured within 2 hours after the last administration on day 3
7. Assessment of rat pain behavior:
Paw withdrawal thermal latency (PWL): the PWL was measured by using a PL-200 thermal pain stimulator (8V, 50 W, with a strength of 100%). The time period since the time irradiating the middle portion of the planta pedis at the operation side of the rat with light till the time the rat lifted its leg to keep out of the light was TWL. To prevent tissue injury, a cut-off time of 80 s was set, each rat was measured for 3 times with an interval of 5 min, and the results were averaged.

[3] = tested on: mice after neuropathic pain; test: Elevated plus maze test (EPM), neuropathic pain; format: in vivo; details: 3 mg/kg IP, 3 mg/kg
Experimental: An anxious animal model of the prior art—the elevated plus maze test (EPM) was adopted. The mice were acclimated for 30 minutes in the room prior to the behavior observation. The EPM was composed of two open arms (250 lux) and two closed arms (350 lux) arranged opposite to each other. For each test, an individual animal was placed at the center of the test position and allowed to move freely. The test is carried out for 5 minutes. The number of entering the test position for each arm and the time spent therefore were recorded.
The other two sets of tests were conducted to test the effect of the crystal of the present invention on inhibiting anxiety caused by chronic pain and neuropathic pain.
The EPM test tested the anxiety behavior of mice after the test treatment. The physiological saline, non-crystalline NB001 (3 mg/kg), the crystal of the present invention (3 mg/kg), and Gabapentin (30 mg/kg) as a positive control were intraperitoneally injected (IP) into the mice treated with yeast polysaccharide respectively. The behaviors of Mice were observed 28 days after the yeast polysaccharide treatment.

Nc1ncnc2c1ncn2CCNCCCCCO [New NB001, 5-(((2-(6-amino)-9H-purin-9-yl)ethyl)amino)pentan-1-ol]
therapeutic effect in bright/dark box test as compared with the positive control group ([1]; Table 8, listed as the crystal of the present invention): extremely significant
% time in the open arm ([1]; Bright/dark box test, Visceral pain, 3 mg/kg): 10.3 ± 1.2 (8) %
analgesic effect (PWL) as compared with the model group ([2]; twice daily for 3 days, PWL at 2 h after last administration (21d)): better analgesic effect
significance of the analgesic effect (PWL), FIG. 7 ([2]; P<0.01): extremely significant
% time in the open arm [3]: 18.5 ± 1.4 (8) %
